Where a SMILES comes first, the peptide text is derived from it. [ ]: non-standard residue; d: D form.
Columns and labels:
Tau^Δ1‐250 [1] = target: T1, Tau^Δ1‐250 (Homo sapiens, UniProt P10636); assay: Seeded Tau^Δ1‐250 aggregation with preformed filaments, no heparin; format: biochemical; conditions: Tau monomers incubated with preformed Tau^Δ1‐250 filaments, no heparin (Figure S10)
T1 construct: Tau^Δ1‐250 (an aggregate prone truncated version of full‐length Tau); made in house; host or cells: E. coli BL21(DE3)
T1 sequence (P10636 568-758, stated change not applied): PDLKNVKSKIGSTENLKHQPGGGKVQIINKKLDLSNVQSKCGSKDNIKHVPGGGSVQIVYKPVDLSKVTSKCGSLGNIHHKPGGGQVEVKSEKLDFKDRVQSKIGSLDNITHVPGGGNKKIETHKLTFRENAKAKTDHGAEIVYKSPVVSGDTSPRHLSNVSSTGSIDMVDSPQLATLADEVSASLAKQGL

Tau^Δ1‐250 [2] = target: T1, Tau^Δ1‐250; assay: Circular dichroism of Tau^Δ1‐250 aggregation; format: biochemical; conditions: 20 µM Tau^Δ1‐250, 20 µM RI‐AG03, aggregated 5 h; CD 180–260 nm
Protocol: Circular dichroism (CD): CD spectra were obtained using a Chirascan plus qCD spectrometer between 180 and 260 nm with a bandwidth of 1 nm and a path length of 2 mm.
(§1) FIGURE 4 Lead peptide RI‐AG03 suppresses Tau β‐sheet content and forms of off‐pathway structures. […] 20 µM RI‐AG03 was added after 0, 24, and 72 h, of Tau aggregation (hatched gray bars), or not at all (solid gray bar representing end‐point aggregation of Tau^2N4R at 9 days). Note that Tau^2N4R aggregation plateaued at ∼72 h. […] One factor repeated measures ANOVA + Tukey post hoc statistical analysis: p > 0.05, *p ≤ 0.05, **p ≤ 0.01, ***p ≤ 0.001. (C) Negative stain TEM images using a Joel JEM‐1010 after the aggregation of 20 µM Tau^Δ1‐250 for 24 h, in the absence of RI‐AG03 (left), and in the presence of 20 µM RI‐AG03 (right). (D) The area and diameter of 200 large spherical species formed in the presence of 20 µM RI‐AG03 and recorded by TEM were quantified using iTEM software. […]

VQIINK = target: T2, VQIINK (Homo sapiens, UniProt P10636); assay: ThT fluorescence, aggregation of VQIINK peptide; format: biochemical; conditions: ThT end-point 24 h; 20 µM VQIINK, 20 µM RI‐AG03 (equimolar), 5 µM heparin, pH 7.4; alone or combined with VQIVYK
T2 construct: ^275VQIINK^280 hexapeptide (motif found in three isoforms)
Protocol: (§2) Fluorescence was measured (λex = 442 nm, λem = 483 nm), and data were normalized. […] The addition of inhibitor to the growth phase was controlled by adding an equivalent volume of buffer alone.
(§3) FIGURE 3 Lead peptide RI‐AG03 dose‐response and target specificity. […] (C) Concentration‐dependent inhibition of by Tau^Δ1‐250 by RI‐AG03. […] (E) Concentration‐dependent inhibition of by Tau^2N4R by RI‐AG03. […] (F) log10 scatter graph of Tau^2N4R inhibition by RI‐AG03 employing a curve fitting algorithm to calculate the IC50 at 5 µM. Experiments were conducted in triplicate and error bars were reported as standard deviation. One factor repeated measures ANOVA + Tukey post hoc statistical analysis: p > 0.05, *p ≤ 0.05, **p ≤ 0.01, ***p ≤ 0.001.

Tau^Δ1‐250 [3] = target: T1, Tau^Δ1‐250; assay: ThT fluorescence, heparin-induced aggregation of Tau^Δ1‐250; format: biochemical
Protocol: as §2
(§4) Experiments were conducted in triplicate and error bars were reported as standard deviation. Statistical analysis: p > 0.05, *p ≤ 0.05, **p ≤ 0.01, ***p ≤ 0.001.

Tau^Δ1‐250 [4] = target: T1, Tau^Δ1‐250; assay: TEM of aggregated Tau^Δ1‐250; format: biochemical
Protocol: Transmission electron microscopy (TEM): Tau was aggregated in similar conditions as above. Samples (10 µL) were loaded onto Formvar/Carbon 300 mesh copper grids for 3 min. The excess sample was wicked away and then negatively stained with 10 µL of filtered 2% phosphotungstic acid, pH 2, for 2 min. Grids were examined using a JEOL JEM‐1010 transmission electron microscope and were visualized and photographed at 50,000× magnification with 80.0 kV.
as §1

[5] = ThT fluorescence, self-assembly of peptide inhibitors without Tau; format: physicochemical; conditions: ThT end-point 216 h (9 days); 20 µM peptide, PBS, 1 mM DTT, 20 µM ThT, 10 µM heparin, pH 7.4; n=3
Protocol: as §2, §4

in vitro = conditions: isolated enzyme trypsin
Protocol: 15% SDS PAGE gels of AG03 (100 µM) and RI-AG03 (100 µM) treated with and without equimolar
Trypsin concentration for 24-hours at 37 °C.

Tau^2N4R = target: T3, Tau^2N4R (Homo sapiens, UniProt P10636); assay: ThT fluorescence end-point, heparin-induced aggregation of Tau^2N4R; format: biochemical
T3 construct: and full‐length Tau (Tau^2N4R); made in house; host or cells: E. coli BL21
T3 sequence (P10636 1-441 isoform P10636-8): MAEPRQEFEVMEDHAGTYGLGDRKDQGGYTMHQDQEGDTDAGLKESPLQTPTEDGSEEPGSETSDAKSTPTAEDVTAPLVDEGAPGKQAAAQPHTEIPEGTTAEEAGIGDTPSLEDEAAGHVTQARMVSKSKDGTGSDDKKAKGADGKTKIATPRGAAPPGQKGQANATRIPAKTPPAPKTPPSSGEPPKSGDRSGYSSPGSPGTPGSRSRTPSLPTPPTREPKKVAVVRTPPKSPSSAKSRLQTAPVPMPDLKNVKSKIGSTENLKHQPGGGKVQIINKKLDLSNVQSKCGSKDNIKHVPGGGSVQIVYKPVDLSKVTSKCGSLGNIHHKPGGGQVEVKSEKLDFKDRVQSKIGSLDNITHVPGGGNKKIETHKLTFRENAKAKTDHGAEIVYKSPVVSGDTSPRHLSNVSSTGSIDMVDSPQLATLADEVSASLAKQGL
Protocol: as §2, §3

[6] = tested on: Drosophila expressing hTau^2N4R in retinal photoreceptors; assay: Drosophila eye experiments (GMR‐hTau^2N4R rough eye, eye size); format: in vivo, Drosophila melanogaster
Protocol: Drosophila eye experiments: UAS-Tau^2N4R flies (BDSC_51363) were recombined to GMR-GAL4 (BDSC_8605) driver to generate stable GMR-hTau^2N4R lines (BDSC_51361). GMR-GAL4 was used as the “healthy” control. Progeny was reared on standard fly food supplemented with RI-AG03; 0.08, 0.8, 20, and 40 μM at 25°C. As controls, Tau, and driver-alone flies were incubated without the inhibitor. Freshly eclosed flies were monitored daily using a light microscope and 1-day-old live flies were imaged (n = 5/treatment) and processed on ImageJ to measure eye width. Ommaditial disorderliness quantification was done using Flynotyper ImageJ plugin.[48] Quantification of rough eye phenotype: Quantitative analysis of the total distance ommatidial disorderliness index of all stable ommatidia [Odld] was performed using the ImageJ plugin “Flynotyper.”[48] Analysis was performed using images taken by light microscope, and 150 ommatidia were considered and ranked by stability and distance to the center. Between four and five animals per genotype were analyzed. Scanning Electron Microscopy (SEM): Flies were euthanized, fixed in 2.5% glutaraldehyde in PBS, and had three 5-min washes in PBS. Samples were dehydrated for 30-min at each ethanol concentration: 50%, 70%, 80%, 90%, and 100%. Samples were transferred to hexamethyldisilazane for two 30-min changes, after which hexamethyldisilazane was sublimated overnight. […]

In the case of `CC[C@@H](C)[C@@H](NC(=O)[C@@H](CCCCNC(C)=O)NC(=O)[C@@H](Cc1ccc(O)cc1)NC(=O)[C@@H](CCCCN)NC(=O)[C@H]1CCCN1C(=O)CNC(=O)[C@@H](CCCNC(=N)N)NC(=O)[C@@H](CCCNC(=N)N)NC(=O)[C@@H](CCCNC(=N)N)NC(=O)[C@@H](CCCNC(=N)N)NC(=O)[C@@H](CCCNC(=N)N)NC(=O)[C@@H](CCCNC(=N)N)NC(=O)[C@@H](CCCNC(=N)N)NC(=O)[C@@H](CCCNC(=N)N)NC(C)=O)C(=O)N[C@H](CCC(N)=O)C(=O)N[C@@H](C(=O)NCC(=O)N[C@H](CCCNC(=N)N)C(N)=O)C(C)C` [RI‐AG03] (Ac-[dR][dR][dR][dR][dR][dR][dR][dR]G[dP][dK][dY][dK](Ac)[dI][dQ][dV]G[dR]-NH2), the “effect on seeded Tau^Δ1‐250 aggregation in the absence of heparin” value (Tau^Δ1‐250 [1]) is reported as “demonstrated efficacy at inhibiting seeded Tau^Δ1‐250 aggregation”, the “CD spectral changes (random coil to secondary structure incl. β‐strands)” value (Tau^Δ1‐250 [2]) is reported as “significantly suppressed” and the “effect on aggregation of VQIINK peptide” value (VQIINK) is reported as “dramatically reduced”. For the same molecule, the IC50 (Tau^Δ1‐250 [3]) was 7.83 µM, the “inhibition of Tau^Δ1‐250 aggregation” value (Tau^Δ1‐250 [3]; ThT end-point after 24 h, 37°C, 20 µM Tau^Δ1‐250, 20 µM peptide (equimolar), 5 µM heparin, 30 mM Tris, 1 mM DTT, 15 µM ThT, pH 7.4, triplicate) was roughly 94% and the “effect when added during the growth phase of Tau^Δ1‐250 aggregation” value (Tau^Δ1‐250 [3]; ThT kinetics 12 h, 20 µM Tau^Δ1‐250, 20 µM RI‐AG03 added 1 h after aggregation was initiated) was “halted any further aggregation”. For the same molecule, the “mean diameter of large spherical structures formed with the inhibitor” value (Tau^Δ1‐250 [4]; 20 µM Tau^Δ1‐250, 20 µM RI‐AG03, 24 h, TEM, 200 species quantified) was roughly 36 nm, the “fibrils seen by TEM” value (Tau^Δ1‐250 [4]; 20 µM Tau^Δ1‐250 with heparin 24 h, equimolar (20 µM) RI‐AG03, negative stain TEM) was “these fibrils were not observed” and the “self-association into β‐sheets over 216 h” value [5] was “does not self‐associate into β‐sheets”. For the same molecule, the metabolised at 24 h, 100 µM (in vitro) was 19%, the IC50 (Tau^2N4R) was 5 µM and the “ThT signal at 9 days, peptide added after 24 h of Tau^2N4R aggregation” value (Tau^2N4R; 20 µM Tau^2N4R, 20 µM RI‐AG03 added after 24 h, read at 216 h, versus negative control) was “reduction of ThT signal”. The “ThT signal at 9 days, peptide added after 72 h of Tau^2N4R aggregation” value (Tau^2N4R; 20 µM Tau^2N4R, 20 µM RI‐AG03 added after 72 h, read at 216 h, versus negative control) was “no reduction of ThT signal”, the “eye size of hTau^2N4R transgenics” value ([6]; GMR‐hTau^2N4R flies reared on food with 40 µM RI‐AG03, 25°C, versus untreated, n = 5/treatment) was “significantly improved” and the “ommatidial disorganization (Odld, Flynotyper)” value ([6]; GMR‐hTau^2N4R flies treated with RI‐AG03, n=4-5/condition) was “significantly improved”.
